In patent US5079235A, “Antiviral compounds” (Burroughs Wellcome Co., priority 1986, dated 1992):

Tests used:
[1] = system: Varicella zoster virus (VZV); assay: Varicella zoster virus (VZV) assayed in MRC5 cells, plaque reduction method without agarose overlay; type: cell-based; details: for IC50: Human alphaherpesvirus 3, MRC5 cells
[2] = Cell toxicity in Vero cell growth inhibition assay (MTT); type: cell-based; details: monkey; Vero cells, 50% inhibition of cell viability (MTT) at 96 hours; read-out: CCID50 at 96 hr
Experimental: Cell toxicity is assessed in a cell growth inhibition assay. Subconfluent cultures of Vero cells grown on 96-well microtiter dishes are exposed to different dilutions of drug, and cell viability determined daily on replicate cultures using uptake of a tetrazolium dye (MTT). The concentration required for a 50% inhibition of cell viability at 96 hours is termed CCID50.

[3] = system: Human cytomegalovirus (HCMV); assay: Human cytomegalovirus (HCMV) plaque reduction assay in MRC5 or Detroit 532 cells; type: cell-based; details: for IC50: Human betaherpesvirus 5, HCMV, MRC5 or Detroit 532 cells, plaque reduction
Experimental: Human cytomegalovirus (HCMV) is assayed in monolayers of either MRC5 cells (human embryonic lung) or Detroit 532 cells (human foreskin fibroblasts) in multiwell trays. Activity of compounds is determined in the plaque reduction assay, in which a cell monolayer is infected with a suspension of HCMV, and then overlaid with nutrient agarose in the form of a gel to ensure that there is no spread of virus throughout the culture. A range of concentrations of compound of known molarity was incorporated in the nutrient agarose overlay. Plaque numbers of each concentration are expressed as percentage of the control and a dose-response curve is drawn. From this curve the 50% inhibitory concentration (IC50) is estimated.

vaccinia = details: in vitro; cited from earlier work
herpes simplex = details: in vitro; cited from earlier work

SMILES	anti-VZV activity (in words) [1]	IC50 [1] [µM]	CC50 at 96 h [2] [µM]	IC50 [3] [µM]	activity against CMV (in words) ([3]; CMV)	antiviral activity against vaccinia (in words) (vaccinia)	antiviral activity against herpes simplex (in words) (herpes simplex)
CC#Cc1cn([C@H]2C[C@H](O)[C@@H](CO)O2)c(=O)nc1N [Example 2, 2'-Deoxy-5-propynylcytidine]	potent anti-VZV activity	3.3	> 300	> 20			
C#Cc1cn([C@H]2C[C@H](O)[C@@H](CO)O2)c(=O)n(C(=O)c2ccccc2)c1=O [Example 1, 3-N-Benzoyl-2'-deoxy-5-ethynyluridine]					high activity against CMV		
CC#Cc1cn([C@H]2C[C@H](O)[C@@H](CO)O2)c(=O)n(C(=O)c2ccccc2)c1=O [Example 4, 3-N-Benzoyl-2'-deoxy-5-propynyluridine]	potent anti-VZV activity	2.2	> 500	28.5			
C#Cc1cn([C@H]2C[C@H](O)[C@@H](CO)O2)c(=O)[nH]c1=O [2'-deoxy-5-ethynyluridine]						did not demonstrate any effect of use in human medicinal chemotherapy	did not demonstrate any effect of use in human medicinal chemotherapy
